Drawing on patent US20250179000A1 (Sanford Burnham Prebys Medical Discovery Institute, priority 2021, published 2025), this text covers EC50 for 18 compounds.

Holding throughout (type): cell-based
Experiment [1] has as its target Human mGlu2 (Homo sapiens, UniProt Q14416). The experiment is described as follows: mGlu receptor in vitro assay, human mGlu2.
In experiment [2] the target is Human mGlu3 (Homo sapiens, UniProt Q14832). The experiment is described as follows: mGlu receptor in vitro assay, human mGlu3. As to the method:
(§1) Human Embryonic Kidney (HEK-293) cell lines co-expressing rat mGlu receptors 2, 3, 4, 6, 7 or 8 and G protein-coupled inwardly-rectifying potassium (GIRK) channels were grown in Growth Media containing 45% DMEM, 45% F-12, 10% FBS, 20 mM HEPES, 2 mM L-glutamine, antibiotic/antimycotic, non-essential amino acids, 700 μg/mL G418, and 0.6 μg/ml puromycin at 37° C. in the presence of 5% CO2. […] All cell culture reagents were purchased from Invitrogen Corp. (Carlsbad, CA) unless otherwise noted. Calcium assays were used to assess activity of compounds at mGlu1 and mGlu5, as previously described in Engers et al (J. Med. Chem. 2009, 52, 4115-4118). Calcium assays at mGlu3 were performed as described for mGlu5 with the exception that TREx293 mGlu3 Gα15 cells were treated with tetracycline at 20 ng/mL for 20 h prior to assay.
(§2) Briefly, cells were plated into 384-well, black-walled, clear-bottomed poly-D-lysine-coated plates at a density of 15,000 cells/20 μL/well in DMEM containing 10% dialyzed FBS, 20 mM HEPES, and 100 units/mL penicillin/streptomycin (assay media). Plated cells were incubated overnight at 37° C. in the presence of 5% CO2. The following day, the medium was exchanged from the cells to assay buffer [Hanks' balanced salt solution (Invitrogen) containing 20 mM HEPES, pH 7.3] using an ELX405 microplate washer (BioTek), leaving 20 μL/well, followed by the addition of 20 μL/well FluoZin2-AM (330 nM final concentration) indicator dye (Invitrogen; prepared as a stock in DMSO and mixed in a 1:1 ratio with Pluronic acid F-127) in assay buffer. Cells were incubated for 1 h at room temperature, and the dye exchanged to assay buffer using an ELX405, leaving 20 μL/well. Test compounds were diluted to 2 times their final desired concentration in assay buffer (0.3% DMSO final concentration). Agonists were diluted in thallium buffer [125 mM sodium bicarbonate (added fresh the morning of the experiment), 1 mM magnesium sulfate, 1.8 mM calcium sulfate, 5 mM glucose, 12 mM thallium sulfate, and 10 mM HEPES, pH 7.3] at 5 times the final concentration to be assayed. Cell plates and compound plates were loaded onto a kinetic imaging plate reader (FDSS 6000 or 7000; Hamamatsu Corporation, Bridgewater, NJ). Appropriate baseline readings were taken (10 images at 1 Hz; excitation, 470±20 nm; emission, 540±30 nm) and test compounds were added in a 20 μL volume and incubated for approximately 2.5 min before the addition of 10 μL of thallium buffer with or without agonist. After the addition of agonist, data were collected for approximately an additional 2.5 min. Data were analyzed using Excel (Microsoft Corp, Redmond, WA). The slope of the fluorescence increase beginning 5 s after thallium/agonist addition and ending 15 s after thallium/agonist addition was calculated, corrected to vehicle and maximal agonist control slope values, and plotted in using either XLfit (ID Business Solutions Ltd) or Prism software (GraphPad Software, San Diego, CA) to generate concentration-response curves. Potencies were calculated from fits using a four-point parameter logistic equation. For concentration-response curve experiments, compounds were serially diluted 1:3 into 10-point concentration response curves and were transferred to daughter plates using an Echo acoustic plate reformatter (Labcyte, Sunnyvale, CA). Test compounds were applied and followed by EC20 concentrations of glutamate.

For experiment [3], the target named is T1, Rat mGlu2 (Rattus norvegicus, UniProt P31421).
T1 construct: expressed in transfected cells; host or cells: HEK-293 co-expressing GIRK channels
The experiment is described as follows: mGlu receptor in vitro assay, thallium flux through GIRK channels, rat mGlu2. To be noted: PAM potency with EC20 glutamate. As to the method: as §1
as §2, with “Compound activity at the group II (mGlu2 and mGlu3) and group III (mGlu4, mGlu6, mGlu7, and mGlu8) was assessed using thallium flux through GIRK channels, a method that has been described in detail. Briefly,” for “Briefly,”

The target of experiment [4] is T2, Rat mGlu3 (Rattus norvegicus, UniProt P31422).
T2 construct: expressed in transfected cells; host or cells: HEK-293 co-expressing GIRK channels
Description: mGlu receptor in vitro assay (thallium flux through GIRK channels / calcium assay), rat mGlu3. Conditions: PAM potency with EC20 glutamate. How it is done:
as §1
as §2, with “Compound activity at the group II (mGlu2 and mGlu3) and group III (mGlu4, mGlu6, mGlu7, and mGlu8) was assessed using thallium flux through GIRK channels, a method that has been described in detail. Briefly,” for “Briefly,”

SMILES strings stand for the structures. Where only a bound is given, the exact number is not on record here.

Sequence of Human mGlu3 (Q14832 23-879): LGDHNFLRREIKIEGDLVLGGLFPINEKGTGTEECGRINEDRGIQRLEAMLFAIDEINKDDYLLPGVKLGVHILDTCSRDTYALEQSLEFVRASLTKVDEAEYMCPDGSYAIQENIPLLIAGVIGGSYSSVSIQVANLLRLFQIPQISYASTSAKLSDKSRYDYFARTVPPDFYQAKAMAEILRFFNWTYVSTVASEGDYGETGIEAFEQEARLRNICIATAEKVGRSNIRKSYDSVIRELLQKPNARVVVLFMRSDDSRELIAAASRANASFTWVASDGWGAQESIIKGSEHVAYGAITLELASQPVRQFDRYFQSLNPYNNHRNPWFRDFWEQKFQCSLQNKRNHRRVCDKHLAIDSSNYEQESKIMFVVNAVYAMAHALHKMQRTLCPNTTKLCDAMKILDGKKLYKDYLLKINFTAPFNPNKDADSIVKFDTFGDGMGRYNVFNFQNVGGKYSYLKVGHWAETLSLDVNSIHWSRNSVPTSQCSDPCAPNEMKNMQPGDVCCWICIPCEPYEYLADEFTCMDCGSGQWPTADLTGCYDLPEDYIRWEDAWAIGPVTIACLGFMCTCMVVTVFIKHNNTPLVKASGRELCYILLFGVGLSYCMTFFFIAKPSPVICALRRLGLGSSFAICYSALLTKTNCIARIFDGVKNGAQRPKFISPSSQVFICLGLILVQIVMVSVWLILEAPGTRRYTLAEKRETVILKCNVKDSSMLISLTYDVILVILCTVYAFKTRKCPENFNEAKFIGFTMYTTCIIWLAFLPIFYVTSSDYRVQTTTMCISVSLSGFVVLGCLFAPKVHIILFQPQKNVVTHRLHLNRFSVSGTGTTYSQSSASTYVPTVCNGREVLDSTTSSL
T1 sequence (P31421 19-872): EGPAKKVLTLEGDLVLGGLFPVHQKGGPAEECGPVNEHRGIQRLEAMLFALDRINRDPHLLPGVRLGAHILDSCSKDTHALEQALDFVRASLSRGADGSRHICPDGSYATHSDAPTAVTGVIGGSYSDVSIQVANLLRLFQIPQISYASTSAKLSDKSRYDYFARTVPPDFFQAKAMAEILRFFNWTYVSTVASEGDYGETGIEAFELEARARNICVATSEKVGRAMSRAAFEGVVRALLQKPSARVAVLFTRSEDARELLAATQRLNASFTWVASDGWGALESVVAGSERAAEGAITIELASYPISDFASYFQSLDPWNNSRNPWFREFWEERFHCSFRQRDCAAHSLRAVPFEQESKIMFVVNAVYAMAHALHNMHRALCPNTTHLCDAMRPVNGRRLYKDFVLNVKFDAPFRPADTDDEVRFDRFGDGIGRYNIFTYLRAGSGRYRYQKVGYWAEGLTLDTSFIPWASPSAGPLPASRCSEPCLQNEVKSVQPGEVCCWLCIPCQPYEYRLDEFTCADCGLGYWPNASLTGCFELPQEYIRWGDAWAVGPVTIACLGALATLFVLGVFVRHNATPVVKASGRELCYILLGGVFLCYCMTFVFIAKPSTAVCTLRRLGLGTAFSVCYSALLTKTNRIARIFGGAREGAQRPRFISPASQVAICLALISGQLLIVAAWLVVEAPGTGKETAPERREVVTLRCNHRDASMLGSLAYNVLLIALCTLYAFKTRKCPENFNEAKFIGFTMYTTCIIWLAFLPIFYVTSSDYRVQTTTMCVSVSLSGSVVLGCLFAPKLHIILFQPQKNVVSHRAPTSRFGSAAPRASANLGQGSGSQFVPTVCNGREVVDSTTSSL
T2 sequence (P31422 23-879): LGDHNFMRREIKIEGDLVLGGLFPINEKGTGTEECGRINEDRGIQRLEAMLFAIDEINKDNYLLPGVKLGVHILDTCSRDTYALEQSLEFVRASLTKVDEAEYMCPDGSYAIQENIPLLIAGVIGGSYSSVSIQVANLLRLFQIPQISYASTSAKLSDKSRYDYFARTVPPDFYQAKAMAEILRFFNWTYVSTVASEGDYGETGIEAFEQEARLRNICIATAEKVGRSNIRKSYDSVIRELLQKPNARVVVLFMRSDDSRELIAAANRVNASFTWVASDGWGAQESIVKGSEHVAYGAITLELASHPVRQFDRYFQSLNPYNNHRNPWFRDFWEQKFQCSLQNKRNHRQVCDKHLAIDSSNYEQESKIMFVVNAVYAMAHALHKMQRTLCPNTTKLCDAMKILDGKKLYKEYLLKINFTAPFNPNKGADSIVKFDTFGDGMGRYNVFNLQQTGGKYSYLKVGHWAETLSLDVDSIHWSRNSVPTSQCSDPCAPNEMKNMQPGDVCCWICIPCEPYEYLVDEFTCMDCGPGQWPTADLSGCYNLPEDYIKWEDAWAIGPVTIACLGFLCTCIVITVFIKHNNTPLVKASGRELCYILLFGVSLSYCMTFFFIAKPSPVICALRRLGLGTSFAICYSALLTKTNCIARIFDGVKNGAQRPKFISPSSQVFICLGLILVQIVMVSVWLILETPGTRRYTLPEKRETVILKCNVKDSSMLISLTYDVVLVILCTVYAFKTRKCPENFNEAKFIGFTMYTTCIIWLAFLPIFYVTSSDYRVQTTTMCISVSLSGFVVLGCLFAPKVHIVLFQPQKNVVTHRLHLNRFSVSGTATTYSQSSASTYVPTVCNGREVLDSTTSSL
Sequence of Human mGlu2 (Q14416 19-872): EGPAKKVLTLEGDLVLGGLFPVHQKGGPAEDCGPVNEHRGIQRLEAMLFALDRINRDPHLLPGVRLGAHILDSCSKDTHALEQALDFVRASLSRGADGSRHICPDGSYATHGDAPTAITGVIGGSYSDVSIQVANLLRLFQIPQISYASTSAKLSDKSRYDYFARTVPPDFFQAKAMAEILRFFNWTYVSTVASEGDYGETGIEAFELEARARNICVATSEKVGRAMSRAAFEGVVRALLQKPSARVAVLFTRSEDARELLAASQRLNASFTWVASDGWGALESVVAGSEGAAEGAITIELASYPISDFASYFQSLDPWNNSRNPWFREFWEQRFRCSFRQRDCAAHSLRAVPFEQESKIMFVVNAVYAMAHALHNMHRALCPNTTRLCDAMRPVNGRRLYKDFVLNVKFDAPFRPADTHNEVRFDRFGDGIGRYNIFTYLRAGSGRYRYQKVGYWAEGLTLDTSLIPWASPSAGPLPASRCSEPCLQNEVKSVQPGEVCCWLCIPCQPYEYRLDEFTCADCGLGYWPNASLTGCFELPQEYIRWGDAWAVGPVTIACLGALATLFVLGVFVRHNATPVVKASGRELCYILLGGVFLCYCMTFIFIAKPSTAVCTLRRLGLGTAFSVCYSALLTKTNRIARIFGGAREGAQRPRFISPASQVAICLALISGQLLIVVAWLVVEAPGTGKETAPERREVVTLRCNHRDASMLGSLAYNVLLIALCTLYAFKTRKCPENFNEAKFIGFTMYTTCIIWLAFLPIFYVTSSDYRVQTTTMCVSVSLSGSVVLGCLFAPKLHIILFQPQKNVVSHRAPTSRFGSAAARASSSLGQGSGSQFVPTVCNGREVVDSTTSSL

As for `COc1ccc(C(=O)O)cc1OCCN(CCOc1ccc(C(=O)CC(C)(C)C)c(O)c1C)S(=O)(=O)c1ccc(C)cc1` [Example 31, 3-[2-({2-[4-(3,3-Dimethylbutanoyl)-3-hydroxy-2-methylphenoxy]ethyl}[(4-methylphenyl)sulfonyl]amino)ethoxy]-4-methoxybenzoic acid], the EC50 in experiment [1] is 373 nM; in experiment [2], over 30000 nM.

In the case of `COc1ccc(C(=O)O)cc1OCCCCOc1ccc(C(=O)c2ccc(C(C)(C)C)cc2)c(O)c1C` [compound 76, 3-[4-(4-{[4-(tert-Butyl)phenyl]carbonyl}-3-hydroxy-2-methylphenoxy)butoxy]-4-methoxybenzoic acid], the EC50 in experiment [1] and in experiment [2] was over 10000 nM each time.

As to `COc1ccc(C(=O)O)cc1OCCCCCCCCOc1ccc(C(=O)CC(C)(C)C)c(O)c1C` [Example 18, 3-{8-[4-(3,3-Dimethylbutanoyl)-3-hydroxy-2-methylphenoxy]octyloxy}-4-methoxybenzoic acid], the EC50 was 882 nM in experiment [1] and over 10000 nM in experiment [2].

Turning to `COc1ccc(C(=O)O)cc1OCCCCCCCCCOc1ccc(C(=O)CC(C)(C)C)c(O)c1C` [Example 27, 3-{9-[4-(3,3-Dimethylbutanoyl)-3-hydroxy-2-methylphenoxy]nonyloxy}-4-methoxybenzoic acid], the EC50 in experiment [1] is 710 nM; in experiment [2], 1120 nM.

Regarding `Cc1c(OCc2nnc(-c3cccc(C(=O)O)c3)o2)ccc(C(=O)CC(C)(C)C)c1O` [compound 134, 3-(5-((4-(3,3-Dimethylbutanoyl)-3-hydroxy-2-methylphenoxy)methyl)-1,3,4-oxadiazol-2-yl)benzoic acid], the values for the EC50 in experiment [1] and in experiment [2] were 243 nM and 327 nM, respectively.

Take `COc1ccc(C(=O)O)cc1OCCCCOc1ccc(C(=O)CC(C)(C)C)c(O)c1-c1ccccc1` [compound 131, 3-(4-((5-(3,3-Dimethylbutanoyl)-6-hydroxy-[1,1′-biphenyl]-2-yl)oxy)butoxy)-4-methoxybenzoic acid]: the EC50 worked out at 231 nM in experiment [1] and 1050 nM in experiment [2].

With `COc1ccc(C(=O)O)cc1OCCCCCCCOc1ccc(C(=O)CC(C)(C)C)c(O)c1C` [Example 20, 3-{7-[4-(3,3-Dimethylbutanoyl)-3-hydroxy-2-methylphenoxy]heptyloxy}-4-methoxybenzoic acid], the results for the EC50 in experiment [1] and in experiment [2] were 334 nM and 1060 nM, respectively.

`COc1ccc(C(=O)O)cc1CCCCCOc1ccc(C(=O)CC(C)(C)C)c(O)c1C` [Example 3, 3-(5-(4-(3,3-Dimethylbutanoyl)-3-hydroxy-2-methylphenoxy)pentyl)-4-methoxybenzoic acid]: the results for the EC50 in experiment [1] and in experiment [2] were 1350 nM and 750 nM, respectively.

Turning to `COc1cccc(C(=O)c2ccc(OCc3cnc(-c4cccc(C(=O)O)c4)cn3)c(C)c2O)c1` [compound 75, 3-(5-((3-Hydroxy-4-(3-methoxybenzoyl)-2-methylphenoxy)methyl)pyrazin-2-yl)benzoic acid], the EC50 in experiment [1] amounted to 2710 nM; in experiment [2] it was 1340 nM.

On to `COc1ccc(C(=O)O)cc1OCCOCCOc1ccc(C(=O)CC(C)(C)C)c(O)c1C` [Example 1, 3-(2-(2-(4-(3,3-Dimethylbutanoyl)-3-hydroxy-2-methylphenoxy)ethoxy)ethoxy)-4-methoxybenzoic acid], for which the EC50 in experiment [3] stood at 18 nM; in experiment [4], 52 nM.

For the compound `COc1ccc(C(=O)O)cc1OCCCCOc1ccc(C(=O)C(C)(C)C)c(O)c1C` [compound 105, 3-(4-(3-Hydroxy-2-methyl-4-pivaloylphenoxy)butoxy)-4-methoxybenzoic acid], the EC50 in experiment [3] is 288 nM; in experiment [4], 743 nM.

On to `Cc1c(OCCCCNc2cccc(C(=O)O)c2)ccc(C(=O)CC(C)(C)C)c1O` [compound 85, 3-((4-(4-(3,3-Dimethylbutanoyl)-3-hydroxy-2-methylphenoxy)butyl)amino)benzoic acid], for which the figures for the EC50 in experiment [3] and in experiment [4] were 128 nM and 810 nM, respectively.

As to `Cc1c(OCCCCCOc2cccc(C(=O)O)c2C)cccc1C(=O)O` [compound 98, 3-[5-(3-Carboxy-2-methylphenoxy)pentyloxy]-2-methylbenzoic acid], the EC50 was over 10000 nM in experiment [3] and over 30000 nM in experiment [4].

For the compound `Cc1c(OCc2ccc(-c3cccc(C(=O)O)c3)nn2)ccc(C(=O)CC(C)(C)C)c1O` [compound 119, 3-(6-((4-(3,3-Dimethylbutanoyl)-3-hydroxy-2-methylphenoxy)methyl)pyridazin-3-yl)benzoic acid], the EC50 is 916 nM in experiment [3] and 616 nM in experiment [4].

With `Cc1c(OCc2cccc(-c3cccc(C(=O)O)c3)c2)ccc(C(=O)C2CC2)c1O` [compound 68, 3′-((4-(Cyclopropanecarbonyl)-3-hydroxy-2-methylphenoxy)methyl)-[1,1′-biphenyl]-3-carboxylic acid], the EC50 in experiment [3] came out at 186 nM; in experiment [4], 3730 nM.

As for `CCCC(=O)c1ccc(OCCSCCOc2ccc(C(=O)O)cc2OC)c(C)c1O` [Example 15, 4-{2-[2-(4-Butanoyl-3-hydroxy-2-methylphenoxy)ethylthio]ethoxy}-3-methoxybenzoic acid], the figures for the EC50 in experiment [3] and in experiment [4] were 18 nM and over 30000 nM, respectively.

As to `Cc1c(OCc2cccc(-c3cccc(C(=O)O)c3)c2)ccc(C(=O)Cc2ccccc2)c1O` [compound 161, 3′-((3-Hydroxy-2-methyl-4-(2-phenylacetyl)phenoxy)methyl)-[1,1′-biphenyl]-3-carboxylic acid], the EC50 was 200 nM in experiment [3] and 1030 nM in experiment [4].

`Cc1c(OCc2cnc(-c3cccc(-c4nsc(=O)[nH]4)c3)cn2)ccc(C(=O)CC(C)(C)C)c1O` [compound 125, 3-(3-(5-((4-(3,3-Dimethylbutanoyl)-3-hydroxy-2-methylphenoxy)methyl)pyrazin-2-yl)phenyl)-1,2,4-thiadiazol-5(4H)-one]: the EC50 was over 10000 nM in experiment [3] and over 30000 nM in experiment [4].
